Values of other authors, collected in patent US20030166006A1, “Glucose-1-phosphate thymidylyltransferase and method for selecting inhibitors thereof” (priority 2000, published 2003).

Biological target: RmlA from Pseudomonas aeruginosa (Pseudomonas aeruginosa, UniProt Q9HU22)
Conditions: allosteric feedback inhibition by final product of the four enzyme pathway; Melo & Glaser, 1965

Sequence of RmlA from Pseudomonas aeruginosa (Q9HU22 1-293): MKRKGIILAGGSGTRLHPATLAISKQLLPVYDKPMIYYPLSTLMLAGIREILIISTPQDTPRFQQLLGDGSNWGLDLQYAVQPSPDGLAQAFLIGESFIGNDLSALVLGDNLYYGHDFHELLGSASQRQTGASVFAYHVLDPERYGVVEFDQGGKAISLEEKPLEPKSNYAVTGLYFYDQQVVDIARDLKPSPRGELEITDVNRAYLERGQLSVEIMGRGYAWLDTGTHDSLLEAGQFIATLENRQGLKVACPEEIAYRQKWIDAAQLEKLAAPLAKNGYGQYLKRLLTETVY

In the case of `Cc1cn([C@H]2C[C@H](O)[C@@H](COP(=O)(O)OP(=O)(O)OC3OC(C)C(O)C(O)C3O)O2)c(=O)[nH]c1=O` (stereo partly drawn) [dTDP-rhamnose, 2′-deoxy-thymidylyl-diphospho-L-rhamnose], the “inhibition of RmlA” value is given as “strongly inhibited”.
